Test systems include NCI-H460; A549; RPMI-8226; Malme-3M; HCT-15; SR; CAKI-1; KM12; COLO 205; EKVX; A498; HOP-62; K562; OVCAR-4; UACC-257; SF-295; HOP-92; NCI-H226; UACC-62; DU-145.
Holding throughout (assay): DTP human tumour cell line panel, 48 h

Results on 11 compounds are retold here after ChEMBL document CHEMBL1201862, “PubChem BioAssay data set” (2004).

Structures are written as SMILES.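 Five concentrations, 48 hours, 96-well plates. At the GI50, growth is halved.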 Active and inactive are the calls of the source. No stated cut-off is given here; in the data, active = GI50 up to about 1.1 µM and inactive = higher.

Usually GI50 stands for the concentration giving 50% growth inhibition. For `COc1ccc2c(c1)c(Cc1c(C)n(C)c3ccc(OC)cc13)c(C)n2C`, the GI50 in the test on NCI-H460 was > 100 µM (inactive); in the test with A549, > 100 µM (inactive); in the test on RPMI-8226, > 100 µM (inactive); with Malme-3M, > 100 µM (inactive); in the test on HCT-15, above 100 µM; with SR it was > 100 µM (inactive). Moreover, the GI50 in the test with CAKI-1, with KM12, with COLO 205, in the test with EKVX, in the test with A498 and with HOP-62 was > 100 µM (inactive) throughout. The GI50 in the test on K562, with OVCAR-4, with UACC-257, in the test on SF-295, in the test on HOP-92 and with NCI-H226 was > 100 µM (inactive) each time. The GI50 in the test with UACC-62 was > 100 µM (inactive).

Turning to `CCCC/C=C1\CCC(CN2CCCCC2)C1=O` (configuration not stated), the GI50 is 33.6 µM (inactive) in the test on NCI-H460; 33.3 µM (inactive) in the test on A549; > 100 µM (inactive) with DU-145; 8.55 µM (inactive) with Malme-3M; 9.06 µM in the test with HCT-15; 9.48 µM (inactive) with CAKI-1. Moreover, the GI50 in the test on COLO 205 was 12 µM (inactive); in the test on EKVX, 26.1 µM (inactive); in the test on A498 it was 25.7 µM (inactive); in the test on HOP-62 it was 33 µM (inactive); with K562 it was 7.82 µM (inactive); in the test with OVCAR-4, 30.5 µM (inactive). In addition, the GI50 with UACC-257 is 24.9 µM (inactive); in the test on SF-295 it was 30.5 µM (inactive); with HOP-92 it was 10.9 µM (inactive); in the test with NCI-H226, 26.5 µM (inactive); in the test on UACC-62, 11.4 µM (inactive).

In the case of `CCC1CCN=C(Cn2cc(C)c(=O)[nH]c2=O)N1` (configuration not stated), the GI50 is > 100 µM (inactive) with NCI-H460; > 100 µM (inactive) with A549; > 100 µM (inactive) with DU-145; > 100 µM (inactive) with Malme-3M; above 100 µM in the test with HCT-15; > 100 µM (inactive) with COLO 205. In addition, the GI50 in the test on EKVX, in the test on A498, with HOP-62, in the test with UACC-257, with SF-295 and with HOP-92 was > 100 µM (inactive) in each case. Moreover, the GI50 in the test with NCI-H226 and in the test on UACC-62 was > 100 µM (inactive) each time.

For `COC12C=C(C)C(CC1)CC2C(=O)O` (configuration not stated), the GI50 was > 100 µM (inactive) with NCI-H460; > 100 µM (inactive) in the test on A549; > 100 µM (inactive) in the test with RPMI-8226; > 100 µM (inactive) in the test with Malme-3M; above 100 µM in the test on HCT-15; > 100 µM (inactive) in the test on SR. The GI50 in the test on CAKI-1, in the test with KM12, in the test on COLO 205, in the test on EKVX, with A498 and in the test on HOP-62 was > 100 µM (inactive) each time. Moreover, the GI50 in the test on K562, in the test on OVCAR-4, in the test on UACC-257, in the test on SF-295, in the test on HOP-92 and in the test on NCI-H226 was > 100 µM (inactive) each time. The GI50 in the test on UACC-62 was > 100 µM (inactive).

Turning to `CC[C@@H](C)[C@@H]1NC(=O)C(C(C)=O)=C1O`, the GI50 is 15.3 µM (inactive) in the test on NCI-H460; 26.4 µM (inactive) in the test with A549; 26.2 µM (inactive) in the test on RPMI-8226; 25.1 µM (inactive) in the test on Malme-3M; 20.2 µM with HCT-15; 14.9 µM (inactive) in the test with SR. In addition, the GI50 in the test on CAKI-1 was 0.456 µM (active); in the test with KM12, 15.6 µM (inactive); in the test on COLO 205, 17.9 µM (inactive); with EKVX, 27.7 µM (inactive); in the test on A498, 24.4 µM (inactive); with HOP-62, 18.3 µM (inactive). Also, the GI50 is 24 µM (inactive) with K562; 27.1 µM (inactive) in the test with OVCAR-4; 34.2 µM (inactive) in the test on UACC-257; 26.9 µM (inactive) with SF-295; 43.4 µM (inactive) with HOP-92; 31.7 µM (inactive) with NCI-H226. In addition, the GI50 in the test on UACC-62 was 12.5 µM (inactive).

As to `C=C1C(=O)OC2C[C@H](C)C3CC(=O)C(C)=C3CC12` (some centres not stated), the GI50 in the test with NCI-H460 is 21.9 µM (inactive); in the test on A549 it was 24.5 µM (inactive); in the test on RPMI-8226, 4.45 µM (inactive); with Malme-3M it was 11.8 µM (inactive); with HCT-15 it was 11.2 µM; with SR, 5.56 µM (inactive). Besides, the GI50 in the test with CAKI-1 is 5.09 µM (inactive); in the test on KM12 it was 16 µM (inactive); with COLO 205, 10.4 µM (inactive); in the test on EKVX, 16.3 µM (inactive); in the test on A498 it was 19.5 µM (inactive); with HOP-62, 23.4 µM (inactive). Moreover, the GI50 is 4.47 µM (inactive) in the test with K562; 14.2 µM (inactive) in the test on OVCAR-4; 13.1 µM (inactive) in the test with UACC-257; 25.2 µM (inactive) with SF-295; 10.5 µM (inactive) in the test with HOP-92; 2.94 µM (inactive) in the test on NCI-H226. In addition, in the test on UACC-62, the GI50 was 11.8 µM (inactive).

As to `CCCCCC/C=C1\CCC(CN2CCOCC2)C1=O` (configuration not stated), the GI50 with NCI-H460 is 38.7 µM (inactive); with A549 it was > 45.1 µM (inactive); in the test on RPMI-8226 it was 2.24 µM (inactive); in the test with Malme-3M it was 16.3 µM (inactive); in the test on HCT-15, 8.67 µM; with SR, 4.31 µM (inactive). The GI50 with CAKI-1 is 16.8 µM (inactive); in the test on KM12, 7.64 µM (inactive); in the test on COLO 205, 17.1 µM (inactive); with EKVX, 14.1 µM (inactive); in the test on A498 it was 18 µM (inactive); in the test with HOP-62, 18.3 µM (inactive). Further, the GI50 was 3.07 µM (inactive) with K562; 20.4 µM (inactive) in the test with OVCAR-4; 15.1 µM (inactive) in the test with UACC-257; 17.7 µM (inactive) in the test with SF-295; 16.3 µM (inactive) in the test with HOP-92; 16 µM (inactive) with NCI-H226. In the test on UACC-62, the GI50 was 16.8 µM (inactive).

Consider `Cn1c(=O)cc2[nH]c3ccccc3n2c1=O`, for which the GI50 in the test on NCI-H460 was 57.5 µM (inactive); in the test with A549, > 100 µM (inactive); with RPMI-8226 it was > 100 µM (inactive); in the test with Malme-3M, > 100 µM (inactive); with HCT-15, 33.7 µM; with SR, > 100 µM (inactive). In addition, the GI50 in the test on CAKI-1 was > 100 µM (inactive); in the test on KM12, > 100 µM (inactive); in the test on COLO 205, 14.2 µM (inactive); in the test with EKVX, > 100 µM (inactive); in the test on A498, > 100 µM (inactive); in the test with HOP-62, > 100 µM (inactive). Moreover, the GI50 was 42.1 µM (inactive) in the test on K562; 27 µM (inactive) in the test with OVCAR-4; > 100 µM (inactive) in the test with UACC-257; > 100 µM (inactive) in the test on SF-295; > 100 µM (inactive) in the test with HOP-92; 55.6 µM (inactive) in the test with NCI-H226. The GI50 in the test on UACC-62 is > 100 µM (inactive).

As to `Nc1nc2[nH]cnc2c(=O)[nH]1`, the GI50 is > 100 µM (inactive) in the test on NCI-H460; > 100 µM (inactive) in the test with A549; > 100 µM (inactive) with RPMI-8226; > 100 µM (inactive) with Malme-3M; above 100 µM with HCT-15; > 100 µM (inactive) in the test with SR. In addition, the GI50 in the test on CAKI-1, in the test on KM12, in the test with COLO 205, in the test on EKVX, in the test with A498 and with HOP-62 was > 100 µM (inactive) in each case. For the same compound, the GI50 with K562, in the test on OVCAR-4, in the test with UACC-257, in the test with SF-295, in the test on HOP-92 and in the test with NCI-H226 was > 100 µM (inactive) each time. Also, the GI50 with UACC-62 was > 100 µM (inactive).

For `COC(=O)[C@@]1(C(C)CC(=O)O)CCCCC1=O` (some centres not stated), the GI50 was > 100 µM (inactive) with NCI-H460; > 100 µM (inactive) with A549; 34.3 µM (inactive) in the test with RPMI-8226; > 100 µM (inactive) with Malme-3M; 42.6 µM with HCT-15; 37.8 µM (inactive) in the test on SR. In addition, the GI50 was > 100 µM (inactive) in the test with CAKI-1; > 100 µM (inactive) in the test on KM12; 50.7 µM (inactive) with COLO 205; > 100 µM (inactive) with EKVX; > 100 µM (inactive) in the test on A498; > 100 µM (inactive) with HOP-62. The GI50 in the test on K562, with OVCAR-4, in the test with UACC-257, in the test with SF-295, in the test with HOP-92 and in the test on NCI-H226 was > 100 µM (inactive) throughout. For the same compound, the GI50 in the test on UACC-62 is > 100 µM (inactive).

For the compound `Cn1cnc([N+](=O)[O-])c1Sc1nc2ccccc2o1`, the GI50 is 32.3 µM (inactive) in the test with NCI-H460; 23.1 µM (inactive) in the test on A549; 3.45 µM (inactive) in the test with RPMI-8226; 5.41 µM (inactive) with Malme-3M; 2.77 µM with HCT-15; 2.49 µM (inactive) in the test with SR. The GI50 in the test on CAKI-1 was 1.9 µM (inactive); in the test with KM12, 5.18 µM (inactive); in the test on COLO 205 it was 1.7 µM (inactive); with EKVX, 10.2 µM (inactive); in the test with A498, 19.3 µM (inactive); with HOP-62 it was 36.8 µM (inactive). Moreover, the GI50 with K562 is 2.53 µM (inactive); with OVCAR-4 it was 4.35 µM (inactive); with UACC-257, 5.86 µM (inactive); with SF-295 it was 26.3 µM (inactive); with HOP-92, 4.24 µM (inactive); in the test with NCI-H226, 15.1 µM (inactive). In the test with UACC-62, the GI50 was 12.4 µM (inactive).
